Source: PMC6199744, “Development of Chemical Proteomics for the Folateome and Analysis of the Kinetoplastid Folateome” (ACS Infectious Diseases, 2018)
Like-named read-outs stand apart in the source and are kept apart here.

Tested on: T. brucei lysate proteins
Assay type: binding, Trypanosoma brucei

Nc1nc2cccc(-c3ccccc3)c2n1Cc1ccc(Cl)c(Cl)c1 [compound 3]
0.99: fold change (relative to vehicle control = 1, protein TB11.01.1270 NUCLEIC ACID BINDING PROTEIN, PUTATIVE) | fold change (relative to vehicle control = 1, protein TB11.03.0815 DYNEIN LIGHT CHAIN) | fold change (relative to vehicle control = 1, protein TB427TMP.02.1120 ADENYL[…], PUTATIVE) | fold change (relative to vehicle control = 1, protein TB427.08.3150 T-COMPLEX PROTEIN 1, GAMMA SUBUNIT, PUTATIVE) | fold change (relative to vehicle control = 1, protein TB927.10.3280 60S RIBOSOMAL PROTEINS L38, PUTATIVE) | fold change (vs vehicle control, protein TB427.10.10980 HEAT SHOCK PROTEIN 83) | fold change (vs vehicle control, protein TB427.10.14550 ATP-DEPENDENT DEAD/H RNA HELICASE, PUTATIVE)
0.82: fold change - vehicle control (protein TB927.8.4720 AMINO ACID TRANSPORTER, PUTATIVE) | fold change (relative to vehicle control = 1, protein TB427TMP.02.3120 MALIC ENZYME, PUTATIVE) | fold change (relative to vehicle control = 1, protein TB427.05.300 THYMINE-7-HYDROXYLASE, PUTATIVE) | fold change (relative to vehicle control = 1, protein TB427.08.6110 HY[…], CONSERVED) | fold change (relative to vehicle control = 1, protein TB427.10.9800 60S RIBOSOMAL PROTEIN L22)
0.81: fold change (relative to vehicle control = 1, protein TB427TMP.01.6880 CYTOSOLIC COAT PROTEIN, PUTATIVE)
0.98: fold change (relative to vehicle control = 1, protein TB427.02.6220 ADENOSINE TRANSPORTER 2, PUTATIVE) | fold change (vs vehicle control, protein TB11.01.4370 HY[…], CONSERVED) | fold change (vs vehicle control, protein TB427.06.4890 S-ADENOSYL[…], PUTATIVE)
0.72: fold change (relative to vehicle control = 1, protein TB427.08.5460 FLAGELLAR CALCIUM-BINDING PROTEIN) | fold change (relative to vehicle control = 1, protein TB927.4.4650 […] SYNTHASE, PUTATIVE)
0.92: fold change (relative to vehicle control = 1, protein TB09.211.3540 GLYCEROL KINASE, GLYCOSOMAL) | fold change (relative to vehicle control = 1, protein TB427.07.4180 FATTY ACID ELONGASE, PUTATIVE) | fold change (relative to vehicle control = 1, protein TB927.10.6670 DYNEIN LIGHT CHAIN, PUTATIVE) | fold change (vs vehicle control, protein TB427.05.3170 RIBOSE-PHOSPHATE PYROPHOSPHOKINASE, PUTATIVE)
0.95: fold change - vehicle control (protein TB927.7.7430 ATP SYNTHASE ALPHA CHAIN, MIT[…]) | fold change - vehicle control (protein TB927.8.1990 PEROXIDOXIN) | fold change (relative to vehicle control = 1, protein TB09.160.4250 TR[…]) | fold change (relative to vehicle control = 1, protein TB427TMP.01.0480 HY[…], CONSERVED) | fold change (relative to vehicle control = 1, protein TB427TMP.02.1460 HY[…], CONSERVED) | fold change (relative to vehicle control = 1, protein TB427.08.3490 HY[…], CONSERVED) | fold change (vs vehicle control, protein TB427.06.1070 HY[…], CONSERVED) | fold change (vs vehicle control, protein TB427.08.3660 PROTEIN TRANSPORT PROTEIN SEC23)
0.86: fold change (relative to vehicle control = 1, protein TB427.04.1510 PHOSPHOLIPID-TRA[…], PUTATIVE)
0.93: fold change (relative to vehicle control = 1, protein TB427TMP.01.1680 POLYUBIQUITIN, PUTATIVE) | fold change (relative to vehicle control = 1, protein TB427TMP.01.7530 HY[…], CONSERVED) | fold change (relative to vehicle control = 1, protein TB427TMP.02.5450 GLUCOSE-REGULATED PROTEIN 78, PUTATIVE) | fold change (relative to vehicle control = 1, protein TB427TMP.160.4770 PROTEIN KINASE, PUTATIVE) | fold change (relative to vehicle control = 1, protein TB427TMP.18.0005 HY[…], CONSERVED) | fold change (relative to vehicle control = 1, protein TB427.01.4050 PROTEIN P[…] EF-HAND DOMAINS (PPEF)) | fold change (relative to vehicle control = 1, protein TB427.10.14140 PYRUVATE KINASE 1) | fold change (vs vehicle control, protein TB427.01.1670 HY[…], CONSERVED) | fold change (vs vehicle control, protein TB427.10.2290 CHAPERONE PROTEIN DNAJ, PUTATIVE)
0.84: fold change (relative to vehicle control = 1, protein TB427TMP.03.0090 RIBOKINASE, PUTATIVE)
1: fold change (relative to vehicle control = 1, protein TB09.160.3270 ATP-DEPENDENT DEAD BOX HELICASE, PUTATIVE) | fold change (relative to vehicle control = 1, protein TB11.02.1135 DYNEIN LIGHT CHAIN, PUTATIVE) | fold change (relative to vehicle control = 1, protein TB427TMP.01.1830 HY[…], CONSERVED) | fold change (relative to vehicle control = 1, protein TB427TMP.02.4550 HY[…], CONSERVED) | fold change (relative to vehicle control = 1, protein TB427.05.520 STOMATIN-LIKE PROTEIN, PUTATIVE) | fold change (relative to vehicle control = 1, protein TB427.10.12510 P-TYPE H+-ATPASE, PUTATIVE) | fold change (relative to vehicle control = 1, protein TB427.10.2350 PYRUVATE DEH[…] E3 BINDING PROTEIN, PUTATIVE) | fold change (relative to vehicle control = 1, protein TB927.8.1510 ATP-DEPENDENT DEAD/H RNA HELICASE, PUTATIVE)
0.89: fold change (relative to vehicle control = 1, protein TB927.3.3490 HIGH MOBILITY GROUP PROTEIN, PUTATIVE)
0.96: fold change - vehicle control (protein TB927.8.890 SMALL GTP-BINDING PROTEIN RAB1, PUTATIVE) | fold change (relative to vehicle control = 1, protein TB11.02.2960 MIT[…] PROTEIN, PUTATIVE) | fold change (relative to vehicle control = 1, protein TB427.02.1170 RETRO[…] SPOT (RHS) PROTEIN, PUTATIVE) | fold change (relative to vehicle control = 1, protein TB927.10.13360 […] TU, PUTATIVE) | fold change (relative to vehicle control = 1, protein TB927.1.2330 BETA TUBULIN) | fold change (relative to vehicle control = 1, protein TB927.1.2400 ALPHA TUBULIN) | fold change (vs vehicle control, protein TB427.03.4750 AMINOPEPTIDASE, PUTATIVE)
0.94: fold change (relative to vehicle control = 1, protein TB427TMP.01.3370 […] PROTEIN, PUTATIVE) | fold change (relative to vehicle control = 1, protein TB427TMP.02.2120 NUCLEOPORIN 48) | fold change (vs vehicle control, protein TB09.160.3710 PRO[…] NUCLEAR ANTIGEN (PCNA), PUTATIVE)
1.2: fold change (relative to vehicle control = 1, protein TB427.06.2550 RNA-BINDING PROTEIN, PUTATIVE) | fold change (relative to vehicle control = 1, protein TB427.10.15180 […] PROTEIN, PUTATIVE)
0.78: fold change (relative to vehicle control = 1, protein TB427.10.11930 NAD OR NADP DEPENDENT OXIDOREDUCTASE, PUTATIVE)
0.87: fold change (relative to vehicle control = 1, protein TB11.02.4700 14-3-3 PROTEIN) | fold change (relative to vehicle control = 1, protein TB427.07.2340 40S RIBOSOMAL PROTEIN S15, PUTATIVE) | fold change (relative to vehicle control = 1, protein TB927.7.4500 HY[…], CONSERVED)
0.63: fold change (relative to vehicle control = 1, protein TB427.07.2570 MRNA […], PUTATIVE)
1.3: fold change (relative to vehicle control = 1, protein TB927.3.4360 40S RIBOSOMAL PROTEIN S15A, PUTATIVE)
0.9: fold change (relative to vehicle control = 1, protein TB427TMP.01.1400 GLYCYL-TRNA SYNTHETASE, PUTATIVE) | fold change (relative to vehicle control = 1, protein TB427TMP.39.0006 T[…] EIF2B DELTA SUBUNIT, PUTATIVE) | fold change (relative to vehicle control = 1, protein TB427.03.5420 PROTEIN TRANSPORT PROTEIN SEC24) | fold change (relative to vehicle control = 1, protein TB927.10.4690 DYNEIN LIGHT CHAIN, PUTATIVE) | fold change (relative to vehicle control = 1, protein TB927.3.1120 GTP-BINDING NUCLEAR PROTEIN RTB2, PUTATIVE) | fold change (relative to vehicle control = 1, protein TB927.6.4140 PAR[…] COMPONENT, PUTATIVE) | fold change (vs vehicle control, protein TB427TMP.01.8510 T-COMPLEX PROTEIN 1, ALPHA SUBUNIT, PUTATIVE)
1.1: fold change (vs vehicle control, protein TB927.6.4980 40S RIBOSOMAL PROTEIN S14)
0.77: fold change (relative to vehicle control = 1, protein TB427.03.3160 POLY(A) POLYMERASE) | fold change (relative to vehicle control = 1, protein TB427.05.4530 FATTY ACID ELONGASE, PUTATIVE)
0.88: fold change (relative to vehicle control = 1, protein TB427.07.7500 THYMINE-7-HYDROXYLASE, PUTATIVE) | fold change (relative to vehicle control = 1, protein TB427.10.13110 DYNEIN LIGHT CHAIN, PUTATIVE) | fold change (relative to vehicle control = 1, protein TB427.10.13880 HY[…], CONSERVED)
0.45: fold change - vehicle control (protein TB927.7.5340 HY[…], CONSERVED)
0.97: fold change (relative to vehicle control = 1, protein TB09.160.2550 RIBOSOMAL PROTEIN S7, PUTATIVE) | fold change (relative to vehicle control = 1, protein TB427TMP.160.4910 FLAVOPROTEIN MONOOXYGENASE, PUTATIVE) | fold change (relative to vehicle control = 1, protein TB427TMP.22.0004 HY[…], CONSERVED) | fold change (relative to vehicle control = 1, protein TB427.06.3860 HY[…], CONSERVED) | fold change (relative to vehicle control = 1, protein TB427.10.7630 HY[…], CONSERVED) | fold change (relative to vehicle control = 1, protein TB927.10.4180 TFIIF-[…] PHOSPHATASE, PUTATIVE)
2.27: fold change (relative to vehicle control = 1, protein TB927.2.2440 […]-ATPASE SUBUNIT 6)
0.91: fold change (relative to vehicle control = 1, protein TB427TMP.02.2970 KINESIN, PUTATIVE) | fold change (relative to vehicle control = 1, protein TB427.06.3650 ADP-RI[…], PUTATIVE) | fold change (relative to vehicle control = 1, protein TB927.7.2500 […] SUBUNIT 1) | fold change (vs vehicle control, protein TB427.10.11760 PUMILIO/PUF RNA BINDING PROTEIN 6) | fold change (vs vehicle control, protein TB927.5.1630 HY[…], CONSERVED)
0.83: fold change (relative to vehicle control = 1, protein TB427.03.3560 HY[…], CONSERVED) | fold change (relative to vehicle control = 1, protein TB427.10.14910 SA[…] GLYCOPROTEIN, PUTATIVE) | fold change (relative to vehicle control = 1, protein TB927.5.1930 HY[…], CONSERVED)
0.8: fold change (relative to vehicle control = 1, protein TB427.05.2320 HY[…], CONSERVED) | fold change (relative to vehicle control = 1, protein TB427.10.4940 NUCLEAR DBF2-RELATED KINASE)
0.74: fold change (relative to vehicle control = 1, protein TB927.10.5330 40S RIBOSOMAL PROTEIN S18, PUTATIVE)
